Measured values from publication PMC7306898, “Concentration-Dependent Activity of Hydromethylthionine on Clinical Decline and Brain Atrophy in a Randomized Controlled Trial in Behavioral Variant Frontotemporal Dementia” (Journal of Alzheimer's Disease, 2020).

Key:
[1] = test system: bvFTD patients; experiment: Whole brain volume (WBV) change by MRI (Boundary Shift Integral); assay type: in vivo, human
Source text: (§1) The two doses were provided in identical blister packages as visually identical oral tablets to be taken for up to 52 weeks. The primary outcome was the Addenbrookes Cognitive Examination – Revised (ACE-R). The Functional Activities Questionnaire (FAQ) and reduction in progression of whole brain atrophy were alternative co-primary outcomes. Other outcomes included: Modified Alzheimer’s Disease Cooperative Study – Clinical Global Impression of Change (Modified-CGIC) determined by a third independent rater; Frontotemporal Dementia Rating Scale (FRS); MMSE (from MMSE items incorporated into ACE-R); Addenbrookes Cognitive Examination – III (a revised version of ACE-R which excludes MMSE items subject to copyright restrictions); change in brain volume measured by MRI in frontal and temporal lobes (FTV) and lateral ventricles (LVV); and the effect of hydromethylthionine in patients with known genetic mutations associated with bvFTD. Blood was collected prospectively for the purpose of population PK analyses.
MRI scans were obtained at screening and weeks 16, 32, and 52. The acquisition protocol was standardized across sites and all data were centrally collected, quality-controlled, and analyzed by the imaging core laboratory (Bioclinica). […] For data passing quality-control, baseline volume was automatically assessed using FreeSurfer v5.3, while volume changes were assessed using Boundary Shift Integral (whole brain, lateral ventricles) and Tensor-Based Morphometry (frontal and temporal lobes). […]
The primary analyses were specified as a mixed model, repeated-measures analysis with an unstructured covariance matrix and no imputation for missing data. The model included visit (three levels corresponding to assessments at weeks 16, 32, and 52), treatment group (two levels, 4 mg or 100 mg twice a day), a visit by treatment group interaction term, use of AD-labelled medications (two levels, using or not using), geographic region (three levels: North America, Asia/Australia, Europe), and baseline value of the variable analyzed. […]

[2] = test system: P-glycoprotein (P-gp) transporter; set-up: method as in Investigator's Brochure; conditions: ref Investigator's Brochure; cited from earlier work
[3] = set-up: method as in PMID 31658058; conditions: cited from earlier work
[4] = test system: bvFTD patients; experiment: Functional Activities Questionnaire (FAQ), 52-week Phase III trial; assay type: in vivo, human
Source text: The study was designed as a 52-week Phase III, randomized, controlled, double-blind, parallel-group trial conducted between May 2013 and February 2016 at 70 sites in Canada, United States, Australia, Asia, and Europe. Eligible patients had to be younger than 80 years of age with a diagnosis of bvFTD according to criteria revised by the International bvFTD Criteria Consortium [[1, 50]], with Mini-Mental Status Examination (MMSE) score greater than or equal to 20 at screening. In order to limit inclusion of bvFTD phenocopy cases, there was an additional requirement that patients had to meet the criterion of having definite brain atrophy in frontal and/or temporal lobes scoring 2 or more on a scale previously developed by Kipps et al.. Concomitant use of acetylcholinesterase inhibitors (AChEIs) or memantine (or both) was permitted provided this was at a stable dose for at least 18 weeks before randomization to minimize any potential early symptomatic effects of these treatments. Concomitant use of antidepressant, antipsychotic (except clozapine or olanzapine), and sedative medications was also permitted at stable doses where clinically feasible. Each patient had one or more study partners participate with them in the trial as informants. […] A detailed list of inclusion and exclusion criteria is in the protocol provided in the Supplementary Material. […]
as §1, with “The primary outcome was the Addenbrookes Cognitive Examination – Revised (ACE-R). The Functional Activities Questionnaire (FAQ) and reduction in progression of whole brain atrophy were alternative co-primary outcomes.” left out, “Blood was collected prospectively for the purpose of population PK analyses.” left out

[5] = 8 mg/day, plasma levels above vs below […] threshold

CN(C)c1ccc2c(c1)Sc1cc(N(C)C)ccc1N2 [hydromethylthionine, leuco-methylthioninium bis(hydromethanesulphonate)]
WBV: Decline±SEM for LMTM 8 mg/day group ([1]; 8 mg/day, modeled change from baseline at 52 weeks): –21.64±1.56 cm^3 | reduction in whole brain atrophy [1, 5]: 42% | WBV: Difference±SEM from LMTM 8 mg/day for 200 mg/day ([1]; 200 mg/day vs 8 mg/day, 52 weeks): –1.35±2.32 cm^3 | effect of coadministration on digoxin (P-gp substrate) [2]: decreased concentrations | induction of P-glycoprotein (P-gp) transporter [2]: w eak in ducer | brain:plasma ratio compared to MTC [3]: ≥ 60 fold | FAQ: Decline±SEM for LMTM 8 mg/day group ([4]; 8 mg/day (n = 110), modeled change from baseline at 52 weeks, MITT): 5.51±0.55 | reduction in decline on the FAQ scale [4, 5]: 46% | FAQ: Difference±SEM from LMTM 8 mg/day for 200 mg/day ([4]; 200 mg/day (n = 104) vs 8 mg/day, 52 weeks, MITT): –0.39±0.84
